From patent publication US20250346883A1, “DENSITY GRADIENT CHEMOSTAT FOR ADAPTED LABORATORY EVOLUTION” (priority 2022, published 2025)
Converted amounts (≈) assume the structure as drawn. “And” between values parts separate entries of the source, which are not always exact repeats. Equal values may be shown once.

Key:
[1] = test system: Escherichia coli MG1655 ancestor and MICALE-grown samples; test: Chaotropic stress adaptation analysis (OD600 growth in increasing MgCl2); format: cell-based
Procedure: (§1) The adaptation analysis (step 205) is a qualitative test to compare the ability to grow in the presence of the stressor between the ancestor and MICALE-grown samples. Turbid broth cultures from isolated colonies were diluted 1:100 in sterile broth with increasing amounts of stressor. These dilutions were vortexed before pipetting 0.2 mL in triplicate onto a 96-well plate. The microplate reader then measured OD600 every 15 minutes over the span of four days while incubating the plate at 37° C. with the plate lid on. […] Referring to FIG. 3B, for each OD600 curve, the maximum rate of growth over a span of 75 minutes is designated the exponential growth rate, u, and the subtracted difference between the maximum and minimum OD600 measurements, AOD, is designated the cell proliferation. The high salinity and chaotropic stress adaptation analyses were completed once whereas the antibiotic analysis was repeated for two total trials. Growth metrics were extrapolated from the growth curves (described below) for numerical comparisons between samples and to fit a logistic dose-response curve of each sample's response in a stressor. For each sample, a logistic curve was fit to the triplicate relative exponential growth rate or relative cell proliferation values across all media types (FIG. 3C). This curve represents a sample's relative response to increasing doses of a stressor, known as a dose-response curve. The value for ED50 is the effective dose of the stressor at which a 50% decrease in the maximal response (100%) is observed.
For the chaotropic stress run, samples from both two weeks and four weeks into the run were selected for analysis (Table 5, below). The samples, including the ancestor, were cultured in media with 0, 200, and 250 mM MgCl2. The IL samples were not plated on 200 mM MgCl2 plates due to limited resources. The ancestor was grown on plates with the same MgCl2 concentration as the samples to see if the culturing process was causing genetic change significant enough to affect the growth phenotypes observed during the adaptation analysis. Cultures were diluted into media with 0, 200, 250 and 300 mM MgCl2 then pipetted onto the 96-well-plate to start the four-day analysis.
(§2) To statistically compare growth between samples, two parameters were extracted from the OD600 curves resulting from the adaptation analysis: relative exponential growth rate and relative cell proliferation (FIG. 3B). To find the exponential growth rate, μ, growth curves are normally fit to a standard sigmoidal function, such as the Gompertz model. However, these OD600 curves were too irregular to be well fit with a standard function. Instead, a rolling regression was fitted onto natural log transformed OD600 curves to produce linear regression lines between six measurements at a time (75 total minutes), shifting by 1 measurement, over the curve. The exponential growth rate from the maximum slope obtained by the rolling regression is 0.44 hr^−1. The darker lines on the upper right section of the curve represent where the maximum slope occurs. (FIG. 4).
(§3) The exponential growth rate was determined to be the maximum slope of any of the regression lines, denoted by μstress for growth curves in media with stressor and μblank for that in blank LB media [Equation 1]. Any slope maxima that appeared to be due from anomalies in the data, such as a quick jump in OD600 after biofilm formation, were filtered out. This ensured that the maximum slope occurred during the time that visually represented exponential growth (near the start of the curve). The triplicate μblank calculations were averaged to obtain the values representing that sample's growth in media without stress, μcontrol [Equation 2]. The percent relative exponential growth rate was obtained by dividing each μ by the μcontrol, then multiplying by 100 [Equation 3]. Finally, the three relative exponential growth rate values for each sample and media type were averaged [Equation 4]. […]

[2] = test system: Escherichia coli MG1655 ancestor and MICALE-grown samples; test: High salinity adaptation analysis (OD600 growth in increasing NaCl); format: cell-based
Procedure: as §1
The samples chosen from the high salinity run were frozen stocks of the PL, SL, and BL samples that had been taken at the end of the run (two weeks) and one SL sample from the first 25 hours (Table 2, below). The samples used in the adaptation analysis had been in media with a NaCl concentration of 60 ppt, and the ancestor was cultured on blank LB media. The samples were diluted into LB media with 5, 45, 60, 75, and 90 ppt NaCl then plated on the 96-well plate.
as §2, §3

[3] = test system: Escherichia coli MG1655 ancestor and MICALE-grown samples; test: Antibiotic stress adaptation analysis (OD600 growth in increasing ciprofloxacin); format: cell-based; details: for relative cell proliferation / relative exponential growth rate: 10×MIC
Procedure: as §1
The samples chosen for the antibiotic-stress adaptation analysis were from the end of the antibiotic stress MICALE run, sampled on the 14th day (Table 7, below). Samples were cultured grown in media with no antibiotic, 0.6 μg/mL ciprofloxacin (10×MIC,) and 15 μg/mL ciprofloxacin ([…]) were transferred into 5 mL of LB broth with the same amount of antibiotic. The only exception is the BL sample was grown in 0.6 μg/mL ciprofloxacin then transferred to LB broth with 15 μg/mL ciprofloxacin. Once turbid, the broth cultures were diluted into media with no antibiotic, 0.6 μg/mL, 6 μg/mL, and 60 μg/mL ciprofloxacin then pipetted onto a 96-well plate and placed in the microplate reader to start the analysis. A portion of the broth cultures used for the analysis were frozen in glycerol. For a repeat trial of the adaptation analysis, these frozen stocks were revived in broth media matching the level of antibiotic in which they had originally been cultured.
as §2
The exponential growth rate was determined to be the maximum slope of any of the regression lines, denoted by μstress for growth curves in media with stressor and μblank for that in blank LB media [Equation 1]. Any slope maxima that appeared to be due from anomalies in the data, such as a quick jump in OD600 after biofilm formation, were filtered out. This ensured that the maximum slope occurred during the time that visually represented exponential growth (near the start of the curve). […]

[4] = test system: Escherichia coli; details: cited from earlier work
[5] = sample PL-000-Col1, 200 mM MgCl2

[Cl-].[Cl-].[Mg+2] [MgCl2, magnesium chloride]
growth in 300 mM MgCl2 ([1]; all samples incl. ancestor, 300 mM MgCl2): No samples showed signs of growth
average exponential growth rate (relative) ([1]; sample Anc-000, 200 mM MgCl2): 41.7%
relative cell proliferation ([1]; sample Anc-000, 200 mM MgCl2): 74.0%
growth in 250 mM MgCl2 ([1]; sample Anc-000, 250 mM MgCl2): showed signs of growth
average exponential growth rate (relative) ([1]; sample Anc-200, 200 mM MgCl2): 32.0%
relative cell proliferation ([1]; sample Anc-200, 200 mM MgCl2): 94.0%
average exponential growth rate (relative) ([1]; sample IL-000, 200 mM MgCl2): 33.5%
relative cell proliferation ([1]; sample IL-000, 200 mM MgCl2): 86.5%
maximum OD600 ([1]; sample PL-000-Col1, one triplicate well, 200 mM MgCl2): 1.479
average exponential growth rate (relative) [1, 5]: 54.0%
relative cell proliferation [1, 5]: 130% and 130.3%
growth in 250 mM MgCl2 ([1]; sample PL-000-Col1, 250 mM MgCl2 (one well)): showed signs of growth
relative cell proliferation ([1]; sample PL-000-Col2, 200 mM MgCl2 (considered as no growth)): less than 5%
growth in media with MgCl2 ([1]; sample PL-000-Col2, any media with MgCl2): could not grow
average exponential growth rate (relative) ([1]; sample PL-200, 200 mM MgCl2): 26.5%
relative cell proliferation ([1]; sample PL-200, 200 mM MgCl2): 129.3%
average exponential growth rate (relative) ([1]; sample SL-W2, 200 mM MgCl2): 22.2%
highest average OD600 ([1]; sample SL-W2, 200 mM MgCl2): 1.399
relative cell proliferation ([1]; sample SL-W2, 200 mM MgCl2): 140.8%
average exponential growth rate (relative) ([1]; sample SL-W4, 200 mM MgCl2): 42.3%
relative cell proliferation ([1]; sample SL-W4, 200 mM MgCl2): 102.2%

[Cl-].[Na+] [NaCl, sodium chloride]
decrease of exponential growth rate from 60 to 75 ppt NaCl ([2]; sample Ancestor): 22.9%
relative growth rate ([2]; sample Ancestor, 75 ppt NaCl): 15.5%
average cell proliferation ([2]; sample Ancestor, 90 ppt NaCl (no growth)): less than 5%
increase of exponential growth rate from 60 to 75 ppt NaCl ([2]; sample BL): 7.7%
relative growth rate ([2]; sample BL, 60 ppt NaCl): 32.5%
relative growth rate ([2]; sample BL, 75 ppt NaCl): 40.2%
relative growth rate ([2]; sample BL, 90 ppt NaCl): 42.8%
decrease of exponential growth rate from 60 to 75 ppt NaCl ([2]; sample PL): 35.0%
relative growth rate ([2]; sample PL, 75 ppt NaCl): 18.3%
relative growth rate ([2]; sample PL, 90 ppt NaCl): 25.9%
decrease of exponential growth rate from 60 to 75 ppt NaCl ([2]; sample SLearly): 28.9%
average cell proliferation ([2]; sample SLearly, 75 and 90 ppt NaCl (no growth)): less than 5%
relative growth rate ([2]; sample SLearly, 75 ppt NaCl): 3.1%
decrease of exponential growth rate from 60 to 75 ppt NaCl ([2]; sample SLfinal): 7.8%
relative growth rate ([2]; sample SLfinal, 75 ppt NaCl): 19.7%
relative growth rate ([2]; sample SLfinal, 90 ppt NaCl): 27.0%
average cell proliferation ([2]; three samples taken at the end of the run (PL, SLfinal, BL), every level of salinity (5-90 ppt NaCl)): over 5%

O=C(O)c1cn(C2CC2)c2cc(N3CCNCC3)c(F)cc2c1=O [ciprofloxacin]
growth in media with ciprofloxacin ([3]; Ancestor, any media with ciprofloxacin (10-1000×MIC), both trials): did not show signs of growth
concentration at which cell proliferation value of less than 5% was reached (no growth) ([3]; Trial 1, Ancestor): 10 ×MIC
concentration at which cell proliferation value of less than 5% was reached (no growth) ([3]; Trial 1, sample BL-15): 1000 ×MIC
concentration at which cell proliferation value of less than 5% was reached (no growth) ([3]; Trial 1, sample IL-00): 100 ×MIC
average cell proliferation ([3]; Trial 1, sample IL-00, 100×MIC): 0.6%
average cell proliferation ([3]; Trial 1, sample IL-00, 1000×MIC (likely evaporation, not growth)): 5.3%
concentration at which cell proliferation value of less than 5% was reached (no growth) ([3]; Trial 1, sample IL-15-Col1): 1000 ×MIC
relative growth rate ([3]; Trial 1, sample IL-15-Col1, 100×MIC): 54.4%
concentration at which cell proliferation value of less than 5% was reached (no growth) ([3]; Trial 1, sample IL-15-Col2): 1000 ×MIC
relative cell proliferation ([3]; Trial 1, sample IL-15-Col2): 61.5%
relative exponential growth rate ([3]; Trial 1, sample IL-15-Col2): 107.5%
concentration at which cell proliferation value of less than 5% was reached (no growth) ([3]; Trial 1, sample PL-00): 10 ×MIC
concentration at which cell proliferation value of less than 5% was reached (no growth) ([3]; Trial 1, sample PL-0.6): 100 ×MIC
cell proliferation values ([3]; Trial 1, sample SL-15, all concentrations (10-1000×MIC)): over 5%
concentration at which average cell proliferation lower than 5% was reached ([3]; Trial 2, Anc): 10 ×MIC
relative exponential growth rate ([3]; Trial 2, sample BL-15): 97.2%
relative growth rate ([3]; Trial 2, sample BL-15, 100×MIC): 66.6%
concentration at which average cell proliferation lower than 5% was reached ([3]; Trial 2, sample IL-00): 100 ×MIC
relative exponential growth rate ([3]; Trial 2, sample IL-15-Col1): 90.5%
concentration at which average cell proliferation lower than 5% was reached ([3]; Trial 2, sample IL-15-Col2): 1000 ×MIC
relative cell proliferation ([3]; Trial 2, sample IL-15-Col2): 90.9%
relative exponential growth rate ([3]; Trial 2, sample IL-15-Col2): 101.6%
concentration at which average cell proliferation lower than 5% was reached ([3]; Trial 2, sample PL-00): 100 ×MIC
concentration at which average cell proliferation lower than 5% was reached ([3]; Trial 2, sample PL-0.6): 100 ×MIC
relative exponential growth rate ([3]; Trial 2, sample SL-15): 90.6%
average cell proliferation ([3]; Trial 2, samples IL-15-Col1, SL-15 and BL-15, 1000×MIC (growth in all levels tested)): above 5%
growth (OD600 curves) in ciprofloxacin ([3]; samples IL-15-Col1, IL-15-Col2, SL-15 and BL-15, both trials): had OD600 curves in ciprofloxacin up to 100×MIC
growth in 100 or 1,000×MIC ([3]; samples PL-00, PL-0.6 and IL-00, overall, both trials): could not grow
MIC, literature's value [4]: 0.05 µg/mL (≈ 0.151 µM)
